Data from patent US7943619B2, “Isoxazolo-pyridazine derivatives” (priority 2007, dated 2011).
pKi: −log10 of the molar value.

biological target: human GABA A receptor α5β3γ2 (α5 subunit) (Homo sapiens, UniProt P18507+P31644); assay: biochemical; type: binding; conditions: competition for [3H]flumazenil binding, HEK293 cells transiently expressing human receptors; means of two determinations; read-out: hKi
Description: The affinity of compounds at GABA A receptor subtypes was measured by competition for [3H]flumazenil (85 Ci/mmol; Roche) binding to HEK293 cells expressing rat (stably transfected) or human (transiently transfected) receptors of composition α1β3γ2, α2β3γ2, α3β3γ2 and α5β3γ2.
Cell pellets were suspended in Krebs-tris buffer (4.8 mM KCl, 1.2 mM CaCl2, 1.2 mM MgCl2, 120 mM NaCl, 15 mM Tris; pH 7.5; binding assay buffer), homogenized by polytron for ca. 20 sec on ice and centrifuged for 60 min at 4° C. (50000 g; Sorvall, rotor: SM24=20000 rpm). The cell pellets were resuspended in Krebs-tris buffer and homogenized by polytron for ca. 15 sec on ice. Protein was measured (Bradford method, Bio-Rad) and aliquots of 1 mL were prepared and stored at −80° C.
Assays were incubated to equilibrium for 1 hour at 4° C. and harvested onto GF/C uni-filters (Packard) by filtration using a Packard harvester and washing with ice-cold wash buffer (50 mM Tris; pH 7.5). After drying, filter-retained radioactivity was detected by liquid scintillation counting. Ki values were calculated using Excel-Fit (Microsoft) and are the means of two determinations.

Sequence of human GABA A receptor α5β3γ2 (α5 subunit) (P31644 32-462): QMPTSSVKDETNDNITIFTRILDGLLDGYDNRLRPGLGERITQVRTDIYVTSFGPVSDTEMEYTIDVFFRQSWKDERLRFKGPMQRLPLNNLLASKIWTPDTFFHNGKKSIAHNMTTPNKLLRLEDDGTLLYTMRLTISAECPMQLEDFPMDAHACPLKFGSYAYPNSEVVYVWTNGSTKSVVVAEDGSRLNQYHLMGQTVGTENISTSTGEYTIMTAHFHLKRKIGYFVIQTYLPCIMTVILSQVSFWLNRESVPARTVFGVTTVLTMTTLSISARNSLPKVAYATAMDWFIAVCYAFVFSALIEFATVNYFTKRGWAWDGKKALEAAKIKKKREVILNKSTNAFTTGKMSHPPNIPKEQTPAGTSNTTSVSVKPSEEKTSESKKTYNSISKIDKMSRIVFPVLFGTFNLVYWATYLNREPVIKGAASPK
Sequence of human GABA A receptor α5β3γ2 (α5 subunit) (P28472 26-473 partner): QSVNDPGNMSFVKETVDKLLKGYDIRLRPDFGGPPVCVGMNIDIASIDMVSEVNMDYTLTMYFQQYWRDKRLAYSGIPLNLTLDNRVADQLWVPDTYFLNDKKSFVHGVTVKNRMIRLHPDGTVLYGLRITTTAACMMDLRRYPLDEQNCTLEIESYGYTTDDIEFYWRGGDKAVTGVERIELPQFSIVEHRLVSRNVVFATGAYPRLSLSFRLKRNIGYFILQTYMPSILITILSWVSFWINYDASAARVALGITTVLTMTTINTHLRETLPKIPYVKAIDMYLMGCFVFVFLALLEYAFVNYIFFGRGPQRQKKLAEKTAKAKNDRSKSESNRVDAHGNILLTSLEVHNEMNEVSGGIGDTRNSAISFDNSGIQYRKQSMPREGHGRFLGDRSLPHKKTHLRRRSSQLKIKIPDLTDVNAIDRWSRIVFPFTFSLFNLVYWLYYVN
Sequence of human GABA A receptor α5β3γ2 (α5 subunit) (P18507 40-475): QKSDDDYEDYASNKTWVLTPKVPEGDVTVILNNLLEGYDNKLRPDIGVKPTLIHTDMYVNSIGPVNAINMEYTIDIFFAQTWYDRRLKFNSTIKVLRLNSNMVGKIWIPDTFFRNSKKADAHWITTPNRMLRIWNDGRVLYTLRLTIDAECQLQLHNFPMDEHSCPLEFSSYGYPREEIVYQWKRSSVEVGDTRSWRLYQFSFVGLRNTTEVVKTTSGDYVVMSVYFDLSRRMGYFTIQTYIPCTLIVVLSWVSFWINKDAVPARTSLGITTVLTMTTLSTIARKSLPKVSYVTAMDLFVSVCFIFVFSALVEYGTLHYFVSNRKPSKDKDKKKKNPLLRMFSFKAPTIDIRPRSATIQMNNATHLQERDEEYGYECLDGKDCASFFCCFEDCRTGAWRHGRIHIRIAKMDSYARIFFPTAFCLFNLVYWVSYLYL

Row | Structure (SMILES) | pKi
1 | Cc1onc(-c2ccccn2)c1COc1ccc(C(=O)N2CCS(=O)(=O)CC2)nn1 [Example 99, (1,1-Dioxo-1λ6-thiomorpholin-4-yl)-[6-(5-methyl-3-pyridin-2-yl-isoxazol-4-ylmethoxy)-pyridazin-3-yl]-methanone] | 7.74
2 | Cc1onc(-c2ccccn2)c1COc1ccc(C(=O)NCC2CC2)nn1 [Example 100, 6-(5-Methyl-3-pyridin-2-yl-isoxazol-4-ylmethoxy)-pyridazine-3-carboxylic acid cyclopropylmethyl-amide] | 8.39
3 | Cc1onc(-c2ccccn2)c1COc1ccc(C(=O)NCCO)nn1 [Example 101, 6-(5-Methyl-3-pyridin-2-yl-isoxazol-4-ylmethoxy)-pyridazine-3-carboxylic acid (2-hydroxy-ethyl)-amide] | 8.85
4 | CNC(=O)c1ccc(OCc2c(-c3ccccn3)noc2C)nn1 [Example 102, 6-(5-Methyl-3-pyridin-2-yl-isoxazol-4-ylmethoxy)-pyridazine-3-carboxylic acid methylamide] | 9.05
5 | CCNC(=O)c1ccc(OCc2c(-c3ccccn3)noc2C)nn1 [Example 103, 6-(5-Methyl-3-pyridin-2-yl-isoxazol-4-ylmethoxy)-pyridazine-3-carboxylic acid ethylamide] | 8.82
6 | Cc1onc(-c2ccccn2)c1COc1ccc(C(=O)N2CCSCC2)nn1 [Example 104, [6-(5-Methyl-3-pyridin-2-yl-isoxazol-4-ylmethoxy)-pyridazin-3-yl]-thiomorpholin-4-yl-methanone] | 7.56
7 | Cc1onc(-c2ccccn2)c1COc1ccc(C(=O)NC(C)(C)CO)nn1 [Example 105, 6-(5-Methyl-3-pyridin-2-yl-isoxazol-4-ylmethoxy)-pyridazine-3-carboxylic acid (2-hydroxy-1,1-dimethyl-ethyl)-amide] | 8.40
8 | COCCNC(=O)c1ccc(OCc2c(-c3ccccn3)noc2C)nn1 [Example 106, 6-(5-Methyl-3-pyridin-2-yl-isoxazol-4-ylmethoxy)-pyridazine-3-carboxylic acid (2-methoxy-ethyl)-amide] | 8.80
9 | Cc1onc(-c2ccncc2)c1COc1ccc(C(=O)NCCO)nn1 [Example 107, 6-(5-Methyl-3-pyridin-4-yl-isoxazol-4-ylmethoxy)-pyridazine-3-carboxylic acid (2-hydroxy-ethyl)-amide] | 7.63
10 | CNC(=O)c1ccc(OCc2c(-c3ccncc3)noc2C)nn1 [Example 108, 6-(5-Methyl-3-pyridin-4-yl-isoxazol-4-ylmethoxy)-pyridazine-3-carboxylic acid methylamide] | 8.05
11 | CCNC(=O)c1ccc(OCc2c(-c3ccncc3)noc2C)nn1 [Example 109, 6-(5-Methyl-3-pyridin-4-yl-isoxazol-4-ylmethoxy)-pyridazine-3-carboxylic acid ethylamide] | 7.85
12 | Cc1onc(-c2ccc(F)cn2)c1COc1ccc(Cl)nn1 [Example 110, 3-Chloro-6-[3-(5-fluoro-pyridin-2-yl)-5-methyl-isoxazol-4-ylmethoxy]-pyridazine] | 8.80
13 | CCOC(=O)c1ccc(OCc2c(-c3ccc(F)cn3)noc2C)nn1 [Example 111, 6-[3-(5-Fluoro-pyridin-2-yl)-5-methyl-isoxazol-4-ylmethoxy]-pyridazine-3-carboxylic acid ethyl ester] | 8.92
14 | Cc1onc(-c2ccc(F)cn2)c1COc1ccc(C(=O)NC(C)(C)CO)nn1 [Example 112, 6-[3-(5-Fluoro-pyridin-2-yl)-5-methyl-isoxazol-4-ylmethoxy]-pyridazine-3-carboxylic acid (2-hydroxy-1,1-dimethyl-ethyl)-amide] | 8.82
15 | Cc1onc(-c2ccc(Cl)cn2)c1COc1ccc(C(=O)O)nn1 [Example 113, 6-[3-(5-Chloro-pyridin-2-yl)-5-methyl-isoxazol-4-ylmethoxy]-pyridazine-3-carboxylic acid] | 8.68
16 | Cc1onc(-c2ccncn2)c1COc1ccc(C(=O)NCCO)nn1 [Example 114, 6-(5-Methyl-3-pyrimidin-4-yl-isoxazol-4-ylmethoxy)-pyridazine-3-carboxylic acid (2-hydroxy-ethyl)-amide] | 8.33
17 | Cc1onc(-c2ccncn2)c1COc1ccc(C(=O)NC(C)(C)CO)nn1 [Example 115, 6-(5-Methyl-3-pyrimidin-4-yl-isoxazol-4-ylmethoxy)-pyridazine-3-carboxylic acid (2-hydroxy-1,1-dimethyl-ethyl)-amide] | 7.83
18 | Cc1onc(-c2cccc(F)c2)c1CNc1ccc(C(=O)NCC(F)(F)F)nn1 [Example 118, 6-{[3-(3-Fluoro-phenyl)-5-methyl-isoxazol-4-ylmethyl]-amino}-pyridazine-3-carboxylic acid (2,2,2-trifluoro-ethyl)-amide] | 7.54
19 | Cc1onc(-c2ccc(Cl)cn2)c1CNc1ccc(C(=O)NC(C)(C)CO)nn1 [Example 119, 6-{[3-(5-Chloro-pyridin-2-yl)-5-methyl-isoxazol-4-ylmethyl]-amino}-pyridazine-3-carboxylic acid (2-hydroxy-1,1-dimethyl-ethyl)-amide] | 8.14
20 | CC(C)NC(=O)c1ccc(OCc2conc2-c2ccc(F)cc2)nn1 [Example 121, 6-[3-(4-Fluoro-phenyl)-isoxazol-4-ylmethoxy]-pyridazine-3-carboxylic acid isopropylamide] | 7.56
21 | O=C(NC1CCOCC1)c1ccc(OCc2conc2-c2ccc(F)cc2)nn1 [Example 122, 6-[3-(4-Fluoro-phenyl)-isoxazol-4-ylmethoxy]-pyridazine-3-carboxylic acid (tetrahydro-pyran-4-yl)-amide] | 7.46
22 | O=C(NC1CC1)c1ccc(OCc2conc2-c2ccccn2)nn1 [Example 124, 6-(3-Pyridin-2-yl-isoxazol-4-ylmethoxy)-pyridazine-3-carboxylic acid cyclopropylamide] | 7.50
